From patent publication US20230172204A1 (BASF SE, priority 2020, published 2023)
Where two headings read alike, the source gives them in different places.

Assays:
[1] = system: Leptosphaeria nodorum; assay: Micro titer plate test against Leptosphaeria nodorum causing wheat leaf spots (LEPTNO); format: cell-based; settings: for activity at 0.063 ppm: Parastagonospora nodorum, 168 h, read-out: Fungal growth (%) LEPTNO
[2] = system: Septoria tritici; assay: microbe, parasite or virus in culture; format: cell-based; settings: Zymoseptoria tritici, 168 h, read-out: Fungal growth (%) SEPTTR
[3] = system: Alternaria solani (F129L); assay: Micro titer plate test against Alternaria solani causing early blight (ALTESO F129L); format: cell-based; settings: Alternaria solani, 168 h
[4] = system: Phakopsora pachyrhizi (F129L); assay: Protective control of soybean rust on soybeans (PHAKPA P2); format: in vivo; settings: for % PHAKPA (F129L) Disease level P2 at 4 ppm: protective P2, 4 ppm; for % PHAKPA (F129L) Disease level P2 at 4 ppm / % PHAKPA (F129L) Disease level P2 at 16 ppm: soybean rust F129L; for % PHAKPA (F129L) Disease level P2 at 16 ppm: protective P2, 16 ppm
[5] = system: Phakopsora pachyrhizi (F129L); assay: Protective control of soybean rust on soybeans (PHAKPA P6); format: in vivo; settings: for % PHAKPA (F129L) Disease level P6 at 4 ppm: protective P6, 4 ppm; for % PHAKPA (F129L) Disease level P6 at 4 ppm / % PHAKPA (F129L) Disease level P6 at 16 ppm: soybean rust F129L; for % PHAKPA (F129L) Disease level P6 at 16 ppm: protective P6, 16 ppm
[6] = system: Pyricularia oryzae; assay: microbe, parasite or virus in culture; format: cell-based; settings: Pyricularia oryzae, 168 h, read-out: Fungal growth (%) PYRIOR
[7] = system: Cercospora sojina; assay: microbe, parasite or virus in culture; format: cell-based; settings: for activity at 4 ppm: Cercospora sojina, 168 h, read-out: Fungal growth (%) CERCSO
[8] = system: Microdochium nivale; assay: Micro titer plate test against Microdochium nivale causing snow mould (MONGNI); format: cell-based; settings: for activity at 0.016 ppm: Microdochium nivale, 168 h, read-out: Fungal growth (%) MONGNI
[9] = system: Alternaria solani (wt); assay: microbe, parasite or virus in culture; format: cell-based; settings: Alternaria solani, 168 h; 0.016 ppm; read-out: Fungal growth (%) ALTESO wt
[10] = system: Pyrenophora teres (wt); assay: Micro titer plate test against Pyrenophora teres causing net blotch on barley (PYRNTE wt); format: cell-based; settings: 168 h, read-out: Fungal growth (%) PYRNTE wt
[11] = system: Colletotrichum orbiculare; assay: Micro titer plate test against Colletotrichum orbiculare causing anthracnose (COLLLA); format: cell-based; settings: Colletotrichum orbiculare, 168 h, read-out: Fungal growth (%) COLLLA
[12] = P2 protective, % diseased leaf area
[13] = 0.016 ppm, read-out: Fungal growth (%) ALTESO F129L
[14] = P6 protective, % diseased leaf area

Compound	activity at 0.063 ppm [1] [%]	% PHAKPA (F129L) Disease level P2 at 4 ppm [4] [%]	% PHAKPA (F129L) Disease level P2 at 16 ppm [4] [%]	% PHAKPA (F129L) Disease level P6 at 4 ppm [5] [%]	% PHAKPA (F129L) Disease level P6 at 16 ppm [5] [%]	activity at 0.016 ppm [6] [%]	activity at 0.016 ppm [9] [%]	activity at 4 ppm ([7]; 4 ppm) [%]	further results
CNC(=O)/C(=N/OC)c1cccc(C)c1CO/N=C(\C)c1cccc(C(F)(F)F)c1 [Ex. 8]	70	4	0	5	0	13	56		Fungal growth (%) LEPTNO [1]: 70%; activity at 0.25 ppm [2]: 57%; activity at 0.016 ppm ([3]; read-out: Fungal growth (%) ALTESO F129L, 0.016 ppm): 55%; PHAKPA (F129L) Disease level (%) P2 at 1 ppm ([4]; P2 protective, 1 ppm, % diseased leaf area): 6%; PHAKPA (F129L) Disease level (%) P2 at 4 ppm ([4]; P2 protective, 4 ppm, % diseased leaf area): 1%; Fungal growth (%) CERCSO ([7]; 4 ppm): 27%; activity at 4 ppm [7]: 27%; Fungal growth (%) MONGNI [8]: 54%; activity at 0.016 ppm [8]: 54%
CO/N=C(/C(=O)OC)c1cccc(C)c1CO/N=C(\C)c1cccc(C(F)(F)F)c1 [Ex. 9]	67	35	23	41	4	38	73	11	PHAKPA (F129L) Disease level (%) P2 at 16 ppm [4, 12]: 23%; activity at 0.025 ppm [10]: 44%; PHAKPA (F129L) Disease level (%) P6 at 4 ppm ([5]; P6 protective, 4 ppm, % diseased leaf area): 41%
CO/N=C(/C(=O)OC)c1cccc(C)c1CO/N=C(\SC)c1cccc(Cl)c1 [drawing 963]	88							62	activity at 0.25 ppm [10]: 57%; activity at 0.016 ppm [8]: 95%
CO/N=C(/C(=O)OC)c1cccc(C)c1CO/N=C(/c1cccc(Cl)c1)C1CC1 [drawing 961]						83	81		activity at 0.25 ppm [2]: 39%; activity at 0.016 ppm [3, 13]: 89%; activity at 0.063 ppm [11]: 89%
CO/N=C(/C(=O)OC)c1cccc(C)c1CO/N=C(/c1cccc(C)c1)C1CC1 [drawing 955]	100						100	87	activity at 0.016 ppm [3, 13]: 87%; activity at 0.25 ppm [10]: 78%
CO/N=C(/C(=O)OC)c1cccc(C)c1CO/N=C(\SC)c1cccc(C)c1 [drawing 953]	85						67	71	activity at 0.016 ppm [3, 13]: 66%; activity at 0.25 ppm [10]: 59%
CO/N=C(/C(=O)OC)c1cccc(C)c1CO/N=C(\C)c1cccc(OC(F)(F)F)c1 [drawing 934]						100	94	33	activity at 0.025 ppm [10]: 84%
CNC(=O)/C(=N/OC)c1cccc(C)c1CO/N=C(\SC)c1cccc(C(F)(F)F)c1 [drawing 944]	93					49		66	activity at 0.016 ppm [3, 13]: 85%; activity at 0.016 ppm [8]: 84%
CNC(=O)/C(=N/OC)c1cccc(C)c1CO/N=C(\OC)c1cccc(C(F)(F)F)c1 [drawing 946]	95					39	100		activity at 0.25 ppm [2]: 77%; activity at 0.016 ppm [3, 13]: 87%
CNC(=O)/C(=N/OC)c1cccc(C)c1CO/N=C(\OC)c1cccc(C(F)(F)F)c1 [drawing 948]								60	activity at 0.016 ppm [8]: 80%
CO/N=C(/C(=O)OC)c1cccc(C)c1CO/N=C(\OC)c1cccc(C)c1 [drawing 954]	65						93	67	activity at 0.016 ppm [3, 13]: 81%; activity at 0.25 ppm [10]: 53%
CO/N=C(/C(=O)OC)c1cccc(C)c1CO/N=C(\C)c1cccc(OC(F)(F)F)c1 [drawing 938]									activity at 4 ppm ([3]; 4 ppm, read-out: Fungal growth (%) ALTESO F129L): 87%; activity at 0.063 ppm [11]: 77%
Cc1cccc(-n2nnn(C)c2=O)c1COc1ccn(-c2ccc(Cl)cc2)n1 [drawing 928]						87	98		activity at 0.016 ppm [3, 13]: 100%; activity at 0.016 ppm [8]: 97%
CO/N=C(/C(=O)OC)c1cccc(C)c1CO/N=C(/c1cccc(Cl)c1)C1CC1 [drawing 964]								61	activity at 0.25 ppm [10]: 69%
CO/N=C(/C(=O)OC)c1cccc(C)c1CO/N=C(\OC)c1cccc(C(F)(F)F)c1 [drawing 942]	100					58		56	
CNC(=O)/C(=N/OC)c1cccc(C)c1CO/N=C(\C)c1ccc(OC)cc1OC(F)(F)F [compound 337]		9	0	13	1				
CO/N=C(/C(=O)OC)c1cccc(C)c1CO/N=C(\C)c1ccc(F)c(F)c1 [compound 129]		28	1	24	2				
CO/N=C(/C(=O)OC)c1ccccc1CO/N=C(\C)c1cccc(C)c1 [reference compound]									PHAKPA (F129L) Disease level (%) P2 at 16 ppm [4, 12]: 93%; PHAKPA (F129L) Disease level (%) P6 at 16 ppm [5, 14]: 83%
CNC(=O)/C(=N/OC)c1cccc(C)c1CO/N=C(\C)c1ccc(-c2ccc(F)cc2)cc1C(F)(F)F [compound 426]		7	1	27	10				
CNC(=O)/C(=N/OC)c1cccc(C)c1CO/N=C(\C)c1c(F)ccc(C(F)(F)F)c1NC [compound 233]		100	57	87	27				
CNC(=O)/C(=N/OC)c1cccc(C)c1CO/N=C(\C)c1cc(Cl)ccc1C(F)(F)F [compound 245]		28	8	13	2				
CNC(=O)/C(=N/OC)c1cccc(C)c1CO/N=C(\C)c1cccc(Cl)c1C(F)(F)F [compound 422]		30	0	32	2				
CO/N=C(/C(=O)OC)c1cccc(C)c1CO/N=C(\C)c1ccc(C#N)cc1 [Ex. 155]		97	30	93	20				PHAKPA (F129L) Disease level (%) P2 at 16 ppm [4, 12]: 23%; PHAKPA (F129L) Disease level (%) P6 at 16 ppm [5, 14]: 18%
CO/C=C(/C(=O)OC)c1cccc(C)c1CO/N=C(\C)c1c(Cl)cc(Cl)cc1OC(F)(F)F [compound 436]		70	15	73	27				
CNC(=O)/C(=N/OC)c1ccccc1CO/N=C(\C)c1ccc(Cl)c(C(F)(F)F)c1 [reference compound]									PHAKPA (F129L) Disease level (%) P2 at 16 ppm [4, 12]: 11%; PHAKPA (F129L) Disease level (%) P6 at 16 ppm [5, 14]: 4%
